Assay results taken from US8906925B2, “Pyrido[4,3-B]indoles containing rigid moieties” (Medivation Technologies, Inc., priority 2008, dated 2014).
Where “and” joins values, the source holds several entries; their conditions need not be identical. Equal entries are not always repeated. Where two headings read alike, the source gives them in different places.

Columns and labels:
[1] = biological target: T1, human recombinant serotonin (5-Hydroxytryptamine) 5-HT6 receptor (Homo sapiens, UniProt P50406); experiment: Serotonin 5-HT6 radioligand binding ([3H]LSD); conditions: for inhibition at 1 µM / inhibition at 0.1 µM: read-out: Inhibition of ligand binding, Serotonin 5-HT6 (percent inhibition of specific binding); for inhibition at 0.1 µM: compound at 0.1 μM
T1 construct: expressed in transfected cells; host or cells: human HeLa cells
T1 sequence (P50406 whole entry): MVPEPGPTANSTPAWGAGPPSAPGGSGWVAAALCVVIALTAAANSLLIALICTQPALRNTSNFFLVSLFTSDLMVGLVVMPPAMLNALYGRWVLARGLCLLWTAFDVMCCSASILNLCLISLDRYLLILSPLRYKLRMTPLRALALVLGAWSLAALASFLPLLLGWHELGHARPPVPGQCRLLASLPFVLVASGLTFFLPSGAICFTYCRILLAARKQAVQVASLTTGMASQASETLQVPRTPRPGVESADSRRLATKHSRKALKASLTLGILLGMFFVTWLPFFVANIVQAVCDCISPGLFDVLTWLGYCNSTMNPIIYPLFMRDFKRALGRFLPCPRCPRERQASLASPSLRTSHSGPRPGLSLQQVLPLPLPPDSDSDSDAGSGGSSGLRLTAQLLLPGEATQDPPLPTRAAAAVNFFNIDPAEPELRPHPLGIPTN
Method: Compounds of the invention were incubated with 1.5 nM [3H]Lysergic acid diethylamide (LSD) for 120 min. at 37° C. […] Receptor proteins were filtered and washed, the filters were then counted to determine [3H]LSD specifically bound. Compounds were screened at 1 μM or lower, using 1% DMSO as vehicle. Biochemical assay results are presented as the percent inhibition of specific binding in Table 10.

[2] = biological target: T2, human recombinant adrenergic α2A receptor (Homo sapiens, UniProt P08913); experiment: Adrenergic α2A radioligand binding ([3H]MK-912); conditions: compound at 1 μM
T2 construct: expressed in transfected cells; host or cells: insect Sf9 cells
T2 sequence (P08913 1-465): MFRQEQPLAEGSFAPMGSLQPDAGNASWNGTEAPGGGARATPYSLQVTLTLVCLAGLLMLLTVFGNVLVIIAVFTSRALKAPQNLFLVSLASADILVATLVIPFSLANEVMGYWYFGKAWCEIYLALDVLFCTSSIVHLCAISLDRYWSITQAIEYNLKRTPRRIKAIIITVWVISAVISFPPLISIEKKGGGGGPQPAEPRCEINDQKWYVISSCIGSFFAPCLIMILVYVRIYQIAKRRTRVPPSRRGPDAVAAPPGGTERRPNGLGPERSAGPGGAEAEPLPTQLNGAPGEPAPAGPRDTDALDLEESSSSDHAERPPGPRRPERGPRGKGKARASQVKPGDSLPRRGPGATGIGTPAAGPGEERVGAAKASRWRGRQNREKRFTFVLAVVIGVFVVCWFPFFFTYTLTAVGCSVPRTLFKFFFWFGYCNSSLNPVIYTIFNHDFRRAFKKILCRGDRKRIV
Method: To evaluate in radioligand binding assays the activity of compounds of the invention, human recombinant adrenergic α2A receptor expressed in insect Sf9 cells (Uhlen S et al. J Pharmacol Exp Ther. 271:1558, 1994) in a modified Tris-HCl buffer (50 mM Tris-HCl, pH 7.4, 12.5 mM MgCl2, 2 mM EDTA) was used. Compounds of invention were incubated with 1 nM [^3H]MK-912 for 60 min. at 25° C. MK912 is (2S-trans)-1,3,4,5′,6,6′,7,12b-octahydro-1′,3′-dimethyl-spiro[2H-benzofuro[2,3-a]quinolizine-2,4′(1′H)-pyrimidin]-2′(3′H)-one hydrochloride Non-specific binding was estimated in the presence of 10 μM WB-4101 (2-(2,6-Dimethoxyphenoxyethyl)aminomethyl-1,4-benzodioxane hydrochloride). Receptor proteins were filtered and washed, the filters were then counted to determine [^3H]MK-912 specifically bound. Compounds were screened at 1 μM or lower, using 1% DMSO as vehicle. Biochemical assay results are presented as the percent inhibition of specific binding in Table 9.

[3] = biological target: human dopamine D2L receptor (Homo sapiens, UniProt P14416); experiment: Dopamine D2L radioligand binding ([3H]Spiperone); conditions: percent inhibition of specific binding, compound at 1 μM; for inhibition at 1 µM: read-out: Inhibition of ligand binding, Dopamine D2L
human dopamine D2L receptor, sequence (P14416 whole entry): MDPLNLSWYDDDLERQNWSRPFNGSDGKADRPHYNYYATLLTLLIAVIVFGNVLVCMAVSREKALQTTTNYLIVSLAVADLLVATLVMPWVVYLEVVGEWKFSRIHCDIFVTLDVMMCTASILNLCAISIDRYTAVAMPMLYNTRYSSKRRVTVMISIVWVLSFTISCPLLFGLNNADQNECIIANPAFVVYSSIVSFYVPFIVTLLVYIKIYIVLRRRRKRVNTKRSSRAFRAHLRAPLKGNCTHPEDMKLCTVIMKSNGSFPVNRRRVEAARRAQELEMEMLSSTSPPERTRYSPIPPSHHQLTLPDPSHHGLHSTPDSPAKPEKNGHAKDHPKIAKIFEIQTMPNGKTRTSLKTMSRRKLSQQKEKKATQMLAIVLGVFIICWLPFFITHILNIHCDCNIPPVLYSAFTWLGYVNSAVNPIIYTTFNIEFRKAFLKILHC
Description: Non-specific binding was estimated in the presence of […] Haloperidol. Receptor proteins were filtered and washed, the filters were then counted to determine [^3H]Spiperone specifically bound. […] Biochemical assay results are presented as the percent inhibition of specific binding in Table 9.

[4] = biological target: T3, human recombinant adrenergic α1D receptor (Homo sapiens, UniProt P25100); experiment: Adrenergic α1D radioligand binding ([3H]Prozosin); conditions: compound at 1 μM
T3 construct: expressed in transfected cells; host or cells: human embryonic kidney (HEK-293) cells
T3 sequence (P25100 1-572): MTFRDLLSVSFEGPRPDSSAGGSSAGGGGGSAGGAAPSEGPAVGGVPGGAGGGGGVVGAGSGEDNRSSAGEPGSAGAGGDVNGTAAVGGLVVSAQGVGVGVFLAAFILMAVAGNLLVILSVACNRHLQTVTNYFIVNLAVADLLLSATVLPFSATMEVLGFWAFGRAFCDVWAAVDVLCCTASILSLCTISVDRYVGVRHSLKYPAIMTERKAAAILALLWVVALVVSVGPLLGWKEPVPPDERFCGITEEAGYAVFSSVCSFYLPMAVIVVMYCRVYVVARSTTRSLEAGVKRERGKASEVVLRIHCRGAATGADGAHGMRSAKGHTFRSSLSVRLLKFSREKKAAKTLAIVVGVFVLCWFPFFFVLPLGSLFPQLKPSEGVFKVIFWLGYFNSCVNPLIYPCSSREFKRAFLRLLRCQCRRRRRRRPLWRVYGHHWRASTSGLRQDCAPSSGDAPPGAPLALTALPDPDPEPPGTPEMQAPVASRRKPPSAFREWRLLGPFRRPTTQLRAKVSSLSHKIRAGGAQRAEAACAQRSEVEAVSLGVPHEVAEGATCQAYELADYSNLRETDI
Method: Compounds of invention were incubated with 0.6 nM [^3H]Prozosin for 60 min. at 25° C. Non-specific binding was estimated in the presence of 10 μM phentolamine. Receptor proteins were filtered and washed, the filters were then counted to determine [^3H]Prozosin specifically bound. Compounds were screened at 1 μM or lower, using 1% DMSO as vehicle. Biochemical assay results are presented as the percent inhibition of specific binding in Table 9.

[5] = biological target: human recombinant serotonin (5-Hydroxytryptamine) 5-HT7 receptor (Homo sapiens, UniProt P34969); experiment: Serotonin 5-HT7 radioligand binding ([3H]LSD); conditions: for inhibition at 1 µM: compound at 1 μM
human recombinant serotonin (5-Hydroxytryptamine) 5-HT7 receptor, sequence (P34969 whole entry): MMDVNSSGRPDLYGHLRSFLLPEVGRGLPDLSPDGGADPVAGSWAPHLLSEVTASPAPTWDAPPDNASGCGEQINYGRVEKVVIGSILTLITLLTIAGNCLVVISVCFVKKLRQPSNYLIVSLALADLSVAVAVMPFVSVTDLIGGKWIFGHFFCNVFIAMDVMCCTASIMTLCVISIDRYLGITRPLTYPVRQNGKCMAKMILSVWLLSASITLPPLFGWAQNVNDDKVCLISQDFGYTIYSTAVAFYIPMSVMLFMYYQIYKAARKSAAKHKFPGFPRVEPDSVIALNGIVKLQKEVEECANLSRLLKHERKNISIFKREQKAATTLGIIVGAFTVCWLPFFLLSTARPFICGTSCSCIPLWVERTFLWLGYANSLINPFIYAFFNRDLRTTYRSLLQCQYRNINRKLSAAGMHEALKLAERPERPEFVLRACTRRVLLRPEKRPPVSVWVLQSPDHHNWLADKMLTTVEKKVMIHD
Description: Receptor proteins were filtered and washed, the filters were then counted to determine [^3H]LSD specifically bound.

[6] = percent inhibition of specific binding, read-out: Inhibition of ligand binding, Adrenergic α2A
[7] = percent inhibition of specific binding, read-out: Inhibition of ligand binding, Adrenergic α1D
[8] = read-out: Inhibition of ligand binding, Serotonin 5-HT7 (percent inhibition of specific binding)

SMILES	inhibition at 1 µM ([1]; compound at 1 μM)	inhibition at 1 µM [2, 6]	inhibition at 1 µM [3]	inhibition at 1 µM [4, 7]	inhibition at 1 µM [5, 8]	inhibition at 0.1 µM [1]	Inhibition of ligand binding, Dopamine D2L [3]	inhibition at 0.1 µM ([5]; compound at 0.1 μM, read-out: Inhibition of ligand binding, Serotonin 5-HT7 (percent inhibition of specific binding))	inhibition at 1 µM ([2]; read-out: Inhibition of ligand binding, Adrenergic α2A (percent inhibition of specific binding))	inhibition at 1 µM ([4]; read-out: Inhibition of ligand binding, Adrenergic α1D (percent inhibition of specific binding))	Inhibition of ligand binding, Serotonin 5-HT6 (percent inhibition of specific binding) ([1]; compound at 1 μM, 1 µM)	Inhibition of ligand binding, Serotonin 5-HT7 (percent inhibition of specific binding) ([5]; compound at 0.1 μM, 0.1 µM)
COc1ccc(C(C)(O)Cn2c3c(c4cc(C)ccc42)CN(C)CC3)cc1F (stereo not drawn) [Compound 173, 1-(2,8-dimethyl-3,4-dihydro-1H-pyrido[4,3-b]indol-5(2H)-yl)-2-(3-fluoro-4-methoxyphenyl)propan-2-ol]	85%	94%	32%	58%	103%							
COc1ccc(C(C)(O)Cn2c3c(c4cc(C)ccc42)CN(C)CC3)cc1 (stereo not drawn) [Compound 174, 1-(2,8-dimethyl-3,4-dihydro-1H-pyrido[4,3-b]indol-5(2H)-yl)-2-(4-methoxyphenyl)propan-2-ol]	82%	93%	34%	57%	95%	40%	34/34%	68%				
Cc1ccc2c(c1)c1c(n2CC#Cc2ccccn2)CCN(C)C1 [Compound No. 500, 2,3,4,5-tetrahydro-2,8-dimethyl-5-(3-(pyridin-2-yl)prop-2-ynyl)-1H-pyrido[4,3-b]indole]	18%				48%				72%	11%		
CN1CCc2c(c3cc(Cl)ccc3n2C2=C(c3cccnc3)CCCC2)C1 [Compound No. 166, 8-chloro-2-methyl-5-(2-(pyridin-3-yl)cyclohex-1-enyl)-2,3,4,5-tetrahydro-1H-pyrido[4,3-b]indole]	6%	44%	-2%	28%								
CN1CCc2c(c3cc(Cl)ccc3n2C/C=C/c2ccc(F)cc2)C1 [Compound 126, 5-(4-fluorocinnamyl)-8-chloro-2,3,4,5-tetrahydro-2-methyl-1H-pyrido[4,3-b]indole]	95%	87%	84%	50%								
CCN1CCc2c(c3ccccc3n2CC(O)c2ccc(C)cc2)C1 (racemic) [Compound 44, racemic-2-(2-ethyl-1,2,3,4-tetrahydropyrido[4,3-b]indol-5-yl)-1-p-tolylethanol]	9%	65%		35%	42%							
C=C(Cn1c2c(c3cc(Cl)ccc31)CN(C)CC2)c1ccc(C)nc1 [Compound 136, 8-chloro-2,3,4,5-tetrahydro-2-methyl-5-(2-(6-methylpyridin-3-yl)allyl)-1H-pyrido[4,3-b]indole]	73%	95%	54%	70%								
C/C(=C\n1c2c(c3cc(C)ccc31)CN(C)CC2)c1ccncc1 [Compound 88, (E)-2,3,4,5-tetrahydro-2,8-dimethyl-5-(2-(pyridin-4-yl)prop-1-enyl)-1H-pyrido[4,3-b]indole]	102%	65%		78%	93%	82%					103%	75% and 97%
Cc1ccc2c(c1)c1c(n2CC(O)c2cccnc2)CCN(C)C1 (stereo not drawn) [Compound 54, 2-(1,2,3,4-tetrahydro-2,8-dimethylpyrido[4,3-b]indol-5-yl)-1-(pyridin-3-yl)ethanol]	31%	39%	-4%	15%								
CN1CCc2c(c3cc(Cl)ccc3n2C/C=C/c2ccncc2)C1 [Compound 127, 8-chloro-2,3,4,5-tetrahydro-2-methyl-5-((E)-3-(pyridin-4-yl)allyl)-1H-pyrido[4,3-b]indole]	41%	60%	10%	46%								
C=C(Cn1c2c(c3cc(Cl)ccc31)CN(C)CC2)c1cccnc1 [Compound 133, 8-chloro-2,3,4,5-tetrahydro-2-methyl-5-(2-(pyridin-3-yl)allyl)-1H-pyrido[4,3-b]indole]	80%	89%	29%	55%								
Cc1ccc(C(O)Cn2c3c(c4ccccc42)CN(C)CC3)cc1 (racemic) [Compound 53, racemic-2-(1,2,3,4-tetrahydro-2-methylpyrido[4,3-b]indol-5-yl)-1-p-tolylethanol]	49%	93%		55%	87%							
CCN1CCc2c(c3cc(C)ccc3n2CC(O)c2ccc(C)cc2)C1 (racemic) [Compound 51, racemic-2-(2-ethyl-1,2,3,4-tetrahydro-8-methylpyrido[4,3-b]indol-5-yl)-1-p-tolylethanol]	83%	91%		89%	91%	29%						
Cc1ccc2c(c1)c1c(n2CC(C)(O)c2cccnc2)CCN(C)C1 (stereo not drawn) [Compound 60, 1-(1,2,3,4-tetrahydro-2,8-dimethylpyrido[4,3-b]indol-5-yl)-2-(pyridin-3-yl)propan-2-ol]	50%	81%	6%	33%								
COc1ccc(C(C)(O)Cn2c3c(c4cc(Cl)ccc42)CN(C)CC3)cc1 (stereo not drawn) [Compound 57, 1-(8-chloro-1,2,3,4-tetrahydro-2-methylpyrido[4,3-b]indol-5-yl)-2-(4-methoxyphenyl)propan-2-ol]	68%	70%	22%	84%								
